How the values were obtained:
Format in all cases: biochemical
Details in all cases: ratio of IC50 values, SPA, purified human PI3K isoforms
[1] = biological target: human PI3K isoform beta (p110 beta) (Homo sapiens, UniProt P42338); assay: p110 isoform selectivity scintillation proximity assay (beta)
Procedure: (§1) Binding of compounds of the invention from above Tables 1a and 1b to purified preparations of p110 isoforms alpha, beta, delta, and gamma was measured by a Scintillation Proximity Assay (SPA) to determine binding activity (IC50 μMol) and selectivity of binding of beta, delta, and gamma isoforms relative to alpha (Example 8). These values are expressed in Table 2.
(§2) The ability of representative compounds from Tables 1a and 1b to inhibit the lipid kinase activity of purified preparations of human PI3K isoforms alpha, beta, delta, and gamma was determined by a radiometric scintillation proximity assay (SPA, GE Healthcare, Amersham Biosciences). Concentration dependent inhibition at 50% (IC50 μMol) was determined for all four isoforms […] and fold potency over beta, delta, and gamma relative to alpha was calculated for a selection of compounds in Table 2. Each compound has a p110 alpha IC50<1 μMol.

[2] = biological target: human PI3K isoform gamma (p110 gamma) (Homo sapiens, UniProt P48736); assay: p110 isoform selectivity scintillation proximity assay (gamma)
Chain of human PI3K isoform gamma (p110 gamma) (P48736 whole entry, canonical isoform): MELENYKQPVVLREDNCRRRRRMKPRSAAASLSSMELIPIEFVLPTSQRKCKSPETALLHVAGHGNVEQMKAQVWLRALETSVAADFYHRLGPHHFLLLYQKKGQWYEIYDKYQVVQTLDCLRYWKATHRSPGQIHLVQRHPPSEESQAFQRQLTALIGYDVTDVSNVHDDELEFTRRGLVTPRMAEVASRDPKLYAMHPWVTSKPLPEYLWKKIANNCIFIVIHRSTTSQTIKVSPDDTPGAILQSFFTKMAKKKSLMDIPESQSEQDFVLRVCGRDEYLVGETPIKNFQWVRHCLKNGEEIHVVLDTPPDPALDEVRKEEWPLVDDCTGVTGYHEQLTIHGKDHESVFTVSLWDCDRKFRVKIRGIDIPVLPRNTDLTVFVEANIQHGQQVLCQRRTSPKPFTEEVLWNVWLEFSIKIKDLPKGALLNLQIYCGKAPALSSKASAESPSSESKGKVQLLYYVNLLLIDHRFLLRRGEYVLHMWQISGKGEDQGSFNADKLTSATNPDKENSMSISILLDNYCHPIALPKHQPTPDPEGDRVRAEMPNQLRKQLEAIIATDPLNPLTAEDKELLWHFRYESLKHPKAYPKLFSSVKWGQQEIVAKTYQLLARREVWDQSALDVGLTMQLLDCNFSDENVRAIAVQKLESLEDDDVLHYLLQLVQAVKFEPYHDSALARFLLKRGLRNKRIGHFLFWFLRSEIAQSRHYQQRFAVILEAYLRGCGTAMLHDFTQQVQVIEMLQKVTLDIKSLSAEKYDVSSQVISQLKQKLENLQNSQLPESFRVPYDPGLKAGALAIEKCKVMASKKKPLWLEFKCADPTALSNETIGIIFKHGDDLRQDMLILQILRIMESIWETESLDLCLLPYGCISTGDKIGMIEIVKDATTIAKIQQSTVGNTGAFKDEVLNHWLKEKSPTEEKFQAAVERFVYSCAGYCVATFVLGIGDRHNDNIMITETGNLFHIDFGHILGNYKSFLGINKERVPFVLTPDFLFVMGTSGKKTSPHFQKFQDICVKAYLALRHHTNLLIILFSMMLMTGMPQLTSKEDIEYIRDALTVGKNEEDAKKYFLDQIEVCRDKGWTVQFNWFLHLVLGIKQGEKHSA
Procedure: as §1, §2

[3] = biological target: human PI3K isoform delta (p110 delta) (Homo sapiens, UniProt O00329); assay: p110 isoform selectivity scintillation proximity assay (delta)
Chain of human PI3K isoform delta (p110 delta) (O00329 whole entry, canonical isoform): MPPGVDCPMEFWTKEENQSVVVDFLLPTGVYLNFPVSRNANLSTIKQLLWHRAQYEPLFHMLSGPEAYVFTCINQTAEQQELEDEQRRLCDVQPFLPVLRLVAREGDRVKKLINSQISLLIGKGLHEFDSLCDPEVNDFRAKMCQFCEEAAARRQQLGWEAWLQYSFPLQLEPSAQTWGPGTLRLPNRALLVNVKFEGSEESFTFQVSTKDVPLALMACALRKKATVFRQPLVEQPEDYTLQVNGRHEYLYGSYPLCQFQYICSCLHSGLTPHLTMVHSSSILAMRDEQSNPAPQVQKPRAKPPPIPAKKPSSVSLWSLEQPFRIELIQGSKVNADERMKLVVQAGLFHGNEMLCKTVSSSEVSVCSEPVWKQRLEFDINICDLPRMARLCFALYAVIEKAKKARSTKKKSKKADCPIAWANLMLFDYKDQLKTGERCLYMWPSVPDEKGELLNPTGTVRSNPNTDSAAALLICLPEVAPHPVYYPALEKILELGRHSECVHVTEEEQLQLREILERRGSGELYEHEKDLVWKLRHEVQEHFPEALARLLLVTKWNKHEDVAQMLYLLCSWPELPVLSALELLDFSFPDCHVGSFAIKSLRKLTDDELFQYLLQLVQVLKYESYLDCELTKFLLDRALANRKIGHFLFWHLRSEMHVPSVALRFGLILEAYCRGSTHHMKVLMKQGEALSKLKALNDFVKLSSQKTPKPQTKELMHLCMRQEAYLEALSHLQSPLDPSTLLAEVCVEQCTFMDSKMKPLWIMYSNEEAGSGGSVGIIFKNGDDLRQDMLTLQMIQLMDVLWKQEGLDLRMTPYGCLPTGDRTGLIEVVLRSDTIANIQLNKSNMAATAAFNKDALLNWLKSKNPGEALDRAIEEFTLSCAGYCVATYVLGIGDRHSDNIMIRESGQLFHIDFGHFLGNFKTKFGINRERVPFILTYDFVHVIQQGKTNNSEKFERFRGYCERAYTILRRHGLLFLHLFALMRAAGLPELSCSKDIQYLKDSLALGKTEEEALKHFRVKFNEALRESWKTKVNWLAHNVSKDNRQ
Chain of human PI3K isoform delta (p110 delta) (P27986 whole entry partner, canonical isoform): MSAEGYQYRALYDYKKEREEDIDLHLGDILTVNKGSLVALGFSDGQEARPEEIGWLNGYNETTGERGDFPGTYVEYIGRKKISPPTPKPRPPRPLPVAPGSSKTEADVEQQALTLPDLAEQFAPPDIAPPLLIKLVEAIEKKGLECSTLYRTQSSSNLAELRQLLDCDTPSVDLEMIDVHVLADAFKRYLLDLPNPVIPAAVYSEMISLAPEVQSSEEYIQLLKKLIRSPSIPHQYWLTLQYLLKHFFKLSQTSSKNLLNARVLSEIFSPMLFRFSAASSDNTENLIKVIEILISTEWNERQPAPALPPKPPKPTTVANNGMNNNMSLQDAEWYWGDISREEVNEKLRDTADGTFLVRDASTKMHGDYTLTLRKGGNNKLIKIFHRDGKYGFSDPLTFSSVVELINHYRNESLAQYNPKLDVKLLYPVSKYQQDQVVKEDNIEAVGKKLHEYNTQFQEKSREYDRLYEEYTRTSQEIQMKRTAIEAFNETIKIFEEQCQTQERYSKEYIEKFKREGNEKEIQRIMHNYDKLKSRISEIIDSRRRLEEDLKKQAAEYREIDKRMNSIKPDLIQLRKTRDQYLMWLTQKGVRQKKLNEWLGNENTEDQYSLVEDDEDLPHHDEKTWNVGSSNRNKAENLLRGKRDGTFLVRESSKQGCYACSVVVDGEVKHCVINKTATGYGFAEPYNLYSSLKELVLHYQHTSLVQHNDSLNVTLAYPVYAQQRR
Procedure: as §1, §2

Chain of human PI3K isoform beta (p110 beta) (P42338 whole entry, canonical isoform): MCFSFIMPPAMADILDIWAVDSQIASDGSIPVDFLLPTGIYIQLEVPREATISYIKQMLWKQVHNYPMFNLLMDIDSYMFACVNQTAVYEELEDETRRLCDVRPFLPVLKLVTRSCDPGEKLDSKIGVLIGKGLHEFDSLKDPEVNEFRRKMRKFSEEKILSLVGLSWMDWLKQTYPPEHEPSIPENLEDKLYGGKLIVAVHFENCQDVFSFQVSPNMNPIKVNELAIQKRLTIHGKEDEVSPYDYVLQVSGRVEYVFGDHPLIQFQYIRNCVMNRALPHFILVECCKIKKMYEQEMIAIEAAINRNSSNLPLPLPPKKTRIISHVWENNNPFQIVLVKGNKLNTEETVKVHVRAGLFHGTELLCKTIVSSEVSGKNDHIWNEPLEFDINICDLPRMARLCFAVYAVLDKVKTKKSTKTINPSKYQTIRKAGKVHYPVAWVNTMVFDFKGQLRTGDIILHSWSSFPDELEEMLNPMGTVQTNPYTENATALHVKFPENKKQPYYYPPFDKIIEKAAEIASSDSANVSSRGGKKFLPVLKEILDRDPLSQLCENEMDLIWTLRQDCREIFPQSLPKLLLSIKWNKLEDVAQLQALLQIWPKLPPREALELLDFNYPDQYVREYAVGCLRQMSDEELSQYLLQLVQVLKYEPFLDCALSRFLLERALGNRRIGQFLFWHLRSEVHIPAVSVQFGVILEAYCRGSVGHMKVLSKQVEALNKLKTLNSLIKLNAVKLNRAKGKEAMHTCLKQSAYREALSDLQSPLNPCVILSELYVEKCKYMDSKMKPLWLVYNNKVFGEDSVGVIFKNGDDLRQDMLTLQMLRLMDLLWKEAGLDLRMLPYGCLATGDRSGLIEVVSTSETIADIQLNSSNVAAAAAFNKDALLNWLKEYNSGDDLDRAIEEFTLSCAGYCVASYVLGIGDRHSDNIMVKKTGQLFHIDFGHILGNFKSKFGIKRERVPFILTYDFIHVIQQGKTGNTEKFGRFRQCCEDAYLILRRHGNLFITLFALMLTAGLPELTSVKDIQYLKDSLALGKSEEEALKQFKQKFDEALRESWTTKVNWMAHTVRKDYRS
Chain of human PI3K isoform beta (p110 beta) (P27986 whole entry partner, canonical isoform): as the sequence (P27986 whole entry partner, canonical isoform) above

In the case of `CS(=O)(=O)N1CCN(Cc2cc3nc(-c4cccc5[nH]ncc45)nc(N4CCOCC4)c3o2)CC1` [Compound 2, 2-(1H-indazol-4-yl)-6-((4-methylsulfonylpiperazin-1-yl)methyl)-4-morpholinofuro[3,2-d]pyrimidine], the “alpha/beta (fold potency over beta relative to alpha)” value [1] is reported as over 10 fold, the “alpha/gamma (fold potency over gamma relative to alpha)” value [2] is reported as over 10 fold and the “alpha/delta (fold potency over delta relative to alpha)” value [3] is reported as under 10 fold.

With `C[C@H]1CN(Cc2cc3nc(-c4cccc5[nH]ncc45)nc(N4CCOCC4)c3s2)CCN1S(C)(=O)=O` [Compound 4, 2-(1H-indazol-4-yl)-6-(((3S,5R)-3-methyl-4-methylsulfonylpiperazin-1-yl)methyl)-4-morpholinothieno[3,2-d]pyrimidine] the “alpha/beta (fold potency over beta relative to alpha)” value [1] was over 10 fold, the “alpha/gamma (fold potency over gamma relative to alpha)” value [2] was over 10 fold and the “alpha/delta (fold potency over delta relative to alpha)” value [3] was under 10 fold.

For `C[C@@H]1CN(S(C)(=O)=O)C[C@H](C)N1Cc1cc2nc(-c3cccc4[nH]ncc34)nc(N3CCOCC3)c2s1` [Compound 7, 6-(((2R,6S)-4-methylsulfonyl-2,6-dimethylpiperazin-1-yl)methyl)-2-(1H-indazol-4-yl)-4-morpholinothieno[3,2-d]pyrimidine], the “alpha/beta (fold potency over beta relative to alpha)” value [1] was over 10 fold, the “alpha/gamma (fold potency over gamma relative to alpha)” value [2] was over 10 fold and the “alpha/delta (fold potency over delta relative to alpha)” value [3] was under 10 fold.

For `Cc1nc2ccccc2n1-c1nc(N2CCOCC2)c2cc(CN3CCN(S(C)(=O)=O)CC3)sc2n1` [Compound 16, 2-(2-methyl-1H-benzo[d]imidazol-1-yl)-6-((4-methylsulfonylpiperazin-1-yl)methyl)-4-morpholinothieno[2,3-d]pyrimidine], the “alpha/beta (fold potency over beta relative to alpha)” value [1] was over 10 fold, the “alpha/gamma (fold potency over gamma relative to alpha)” value [2] was over 10 fold and the “alpha/delta (fold potency over delta relative to alpha)” value [3] was under 10 fold.

For `Cc1c(CN2CCC(S(C)(=O)=O)CC2)sc2c(N3CCOCC3)nc(-c3cccc4[nH]ncc34)nc12` [Compound 23, 2-(1H-indazol-4-yl)-7-methyl-6-((4-(methylsulfonyl)piperidin-1-yl)methyl)-4-morpholinothieno[3,2-d]pyrimidine], the “alpha/beta (fold potency over beta relative to alpha)” value [1] was over 10 fold, the “alpha/gamma (fold potency over gamma relative to alpha)” value [2] was over 10 fold and the “alpha/delta (fold potency over delta relative to alpha)” value [3] was under 10 fold.

`CN1CCN(S(=O)(=O)C2CCN(Cc3cc4nc(-c5cccc6[nH]ncc56)nc(N5CCOCC5)c4s3)CC2)CC1` [Compound 24, 2-(1H-indazol-4-yl)-6-((4-N-4-methylpiperazinosulfonylpiperidin-1-yl)methyl)-4-morpholinothieno[3,2-d]pyrimidine] was tested, and the “alpha/beta (fold potency over beta relative to alpha)” value [1] was over 10 fold, the “alpha/gamma (fold potency over gamma relative to alpha)” value [2] was over 10 fold and the “alpha/delta (fold potency over delta relative to alpha)” value [3] was under 10 fold.

In the case of `CN(C)S(=O)(=O)C1CCN(Cc2cc3nc(-c4cccc5[nH]ncc45)nc(N4CCOCC4)c3s2)CC1` [Compound 27, 2-(1H-indazol-4-yl)-6-((4-N,N-dimethylaminosulfonylpiperidin-1-yl)methyl)-4-morpholinothieno[3,2-d]pyrimidine], the “alpha/beta (fold potency over beta relative to alpha)” value [1] is reported as over 10 fold, the “alpha/gamma (fold potency over gamma relative to alpha)” value [2] is reported as over 10 fold and the “alpha/delta (fold potency over delta relative to alpha)” value [3] is reported as under 10 fold.

In the case of `O=S(=O)(N1CCOCC1)N1CCN(Cc2cc3nc(-c4cccc5[nH]ncc45)nc(N4CCOCC4)c3s2)CC1` [Compound 28, 2-(1H-indazol-4-yl)-6-((4-N-morpholinosulfonylpiperazin-1-yl)methyl)-4-morpholinothieno[3,2-d]pyrimidine], the “alpha/beta (fold potency over beta relative to alpha)” value [1] is reported as over 10 fold, the “alpha/gamma (fold potency over gamma relative to alpha)” value [2] is reported as over 10 fold and the “alpha/delta (fold potency over delta relative to alpha)” value [3] is reported as under 10 fold.

In the case of `Cc1c(CN2CCN(S(C)(=O)=O)CC2)sc2c(N3CCOCC3)nc(-c3cccc4[nH]ncc34)nc12` [Compound 29, 2-(1H-indazol-4-yl)-7-methyl-6-((4-(methylsulfonyl)piperazin-1-yl)methyl)-4-morpholinothieno[3,2-d]pyrimidine], the “alpha/beta (fold potency over beta relative to alpha)” value [1] is reported as over 10 fold, the “alpha/gamma (fold potency over gamma relative to alpha)” value [2] is reported as over 10 fold and the “alpha/delta (fold potency over delta relative to alpha)” value [3] is reported as under 10 fold.

In the case of `COCCN(Cc1cc2nc(-c3cccc4[nH]ncc34)nc(N3CCOCC3)c2s1)C1CCN(S(C)(=O)=O)CC1` [Compound 34, N-((2-(1H-indazol-4-yl)-4-morpholinothieno[3,2-d]pyrimidin-6-yl)methyl)-N-(2-methoxyethyl)-1-methylsulfonylpiperidin-4-amine], the “alpha/beta (fold potency over beta relative to alpha)” value [1] is reported as over 10 fold, the “alpha/gamma (fold potency over gamma relative to alpha)” value [2] is reported as over 10 fold and the “alpha/delta (fold potency over delta relative to alpha)” value [3] is reported as under 10 fold.

`CC(=O)N1CCN(Cc2cc3nc(-c4cccc5[nH]ncc45)nc(N4CCOCC4)c3s2)CC1` [Compound 54, 1-(4-((2-(1H-indazol-4-yl)-4-morpholinothieno[3,2-d]pyrimidin-6-yl)methyl)piperazin-1-yl)ethanone] was tested, and the “alpha/beta (fold potency over beta relative to alpha)” value [1] was under 10 fold, the “alpha/gamma (fold potency over gamma relative to alpha)” value [2] was over 10 fold and the “alpha/delta (fold potency over delta relative to alpha)” value [3] was under 10 fold.

For `CS(=O)(=O)N1CCN(Cc2cc3c(N4CCOCC4)nc(-c4cccc5[nH]ncc45)nc3s2)CC1` [Compound 57, 2-(1H-indazol-4-yl)-6-((4-methylsulfonylpiperazin-1-yl)methyl)-4-morpholinothieno[2,3-d]pyrimidine], the “alpha/beta (fold potency over beta relative to alpha)” value [1] was over 10 fold, the “alpha/gamma (fold potency over gamma relative to alpha)” value [2] was over 10 fold and the “alpha/delta (fold potency over delta relative to alpha)” value [3] was under 10 fold.

`CN(C1CCN(Cc2cc3nc(-c4cccc5[nH]ncc45)nc(N4CCOCC4)c3s2)C1)S(C)(=O)=O` (stereo not drawn) [Compound 58, 1-((2-(1H-indazol-4-yl)-4-morpholinothieno[3,2-d]pyrimidin-6-yl)methyl)-N-methyl-N-methylsulfonylpyrrolidin-3-amine] was tested, and the “alpha/beta (fold potency over beta relative to alpha)” value [1] was over 10 fold, the “alpha/gamma (fold potency over gamma relative to alpha)” value [2] was over 10 fold and the “alpha/delta (fold potency over delta relative to alpha)” value [3] was under 10 fold.

With `CN(Cc1cc2nc(-c3cccc4[nH]ncc34)nc(N3CCOCC3)c2s1)CC1CCCN1S(C)(=O)=O` (stereo not drawn) [Compound 59, N-((2-(1H-indazol-4-yl)-4-morpholinothieno[3,2-d]pyrimidin-6-yl)methyl)-N-methyl(1-methylsulfonylpyrrolidin-2-yl)methanamine] the “alpha/beta (fold potency over beta relative to alpha)” value [1] was over 10 fold, the “alpha/gamma (fold potency over gamma relative to alpha)” value [2] was over 10 fold and the “alpha/delta (fold potency over delta relative to alpha)” value [3] was under 10 fold.

For `CN(Cc1cc2nc(-c3cccc4[nH]ncc34)nc(N3CCOCC3)c2s1)C1CCN(S(C)(=O)=O)C1` (stereo not drawn) [Compound 60, N-((2-(1H-indazol-4-yl)-4-morpholinothieno[3,2-d]pyrimidin-6-yl)methyl)-N-methyl-(1-methylsulfonylpyrrolidin)-3-amine], the “alpha/beta (fold potency over beta relative to alpha)” value [1] was over 10 fold, the “alpha/gamma (fold potency over gamma relative to alpha)” value [2] was over 10 fold and the “alpha/delta (fold potency over delta relative to alpha)” value [3] was under 10 fold.

`c1cc(-c2nc(N3CCOCC3)c3sc(CN4CCC(Cn5cccn5)CC4)cc3n2)c2cn[nH]c2c1` [Compound 62, 6-((4-((1H-pyrazol-1-yl)methyl)piperidin-1-yl)methyl)-2-(1H-indazol-4-yl)-4-morpholinothieno[3,2-d]pyrimidine] was tested, and the “alpha/beta (fold potency over beta relative to alpha)” value [1] was over 10 fold, the “alpha/gamma (fold potency over gamma relative to alpha)” value [2] was over 10 fold and the “alpha/delta (fold potency over delta relative to alpha)” value [3] was under 10 fold.

`OC1CCCN(Cc2cc3nc(-c4cccc5[nH]ncc45)nc(N4CCOCC4)c3s2)C1` (stereo not drawn) [Compound 65, 1-((2-(1H-indazol-4-yl)-4-morpholinothieno[3,2-d]pyrimidin-6-yl)methyl)piperidin-3-ol] was tested, and the “alpha/beta (fold potency over beta relative to alpha)” value [1] was under 10 fold, the “alpha/gamma (fold potency over gamma relative to alpha)” value [2] was over 10 fold and the “alpha/delta (fold potency over delta relative to alpha)” value [3] was under 10 fold.

`C[C@H](O)C(=O)N1CCN(Cc2cc3nc(-c4cccc5[nH]ncc45)nc(N4CCOCC4)c3s2)CC1` [Compound 66, (S)-1-(4-((2-(1H-indazol-4-yl)-4-morpholinothieno[3,2-d]pyrimidin-6-yl)methyl)piperazin-1-yl)-2-hydroxypropan-1-one] was tested, and the “alpha/beta (fold potency over beta relative to alpha)” value [1] was under 10 fold, the “alpha/gamma (fold potency over gamma relative to alpha)” value [2] was over 10 fold and the “alpha/delta (fold potency over delta relative to alpha)” value [3] was under 10 fold.

With `CS(=O)(=O)N1CCN(Cc2cc3nc(-c4cnc5ccccc5c4)nc(N4CCOCC4)c3s2)CC1` [Compound 89, 3-[6-(4-Methanesulfonyl-piperazin-1-ylmethyl)-4-morpholin-yl-thieno[3,2-d]pyrimidin-2-yl]-quinoline] the “alpha/beta (fold potency over beta relative to alpha)” value [1] was over 10 fold, the “alpha/gamma (fold potency over gamma relative to alpha)” value [2] was over 10 fold and the “alpha/delta (fold potency over delta relative to alpha)” value [3] was over 10 fold.
